Laboratory results published in the NIST ThermoML archive (doi:10.1021/acs.jced.8b00298).
Numbers after ± are expanded uncertainties.

Conditions: Liquid
[1] = Visual observation in an unstirred cell

| Structure (SMILES) | Critical molar volume (Visual) | Critical pressure (Visual) | Critical temperature [1] | Critical pressure (Capillary flow) | Critical temperature (Capillary flow) |
| --- | --- | --- | --- | --- | --- |
| CCCCC1CCCCC1 [butylcyclohexane] | 0.00056 ± 2e-05 m3/mol | 2510 ± 30 kPa | 649.3 ± 0.2 K | – | – |
| O=C1OCCO1 [ethylene carbonate] | – | – | – | 5280 ± 800 kPa | 786 ± 10 K |
| c1cc[nH]c1 [pyrrole] | – | – | – | 6300 ± 170 kPa | 633.3 ± 3 K |
| OCC1CCC(CO)CC1 (configuration not stated) [1,4-bis(hydroxymethyl)cyclohexane] | – | – | – | 4000 ± 240 kPa | 800.3 ± 4 K |
| OCCOc1ccccc1 [2-phenoxyethanol] | – | – | – | 3860 ± 120 kPa | 749.4 ± 2 K |
| COCOC [dimethoxymethane] | – | – | – | 4550 ± 280 kPa | 488.9 ± 3.2 K |
| C=CC(=O)OCC [ethyl propenoate] | – | – | – | 3710 ± 100 kPa | 555.2 ± 2 K |
| CCC(C)c1ccccc1 (configuration not stated) [(1-methylpropyl)benzene] | 0.00048 ± 2e-05 m3/mol | 3030 ± 30 kPa | 653 ± 0.2 K | – | – |
| CCN(CC)CCO [(diethylamino)ethanol] | – | – | – | 3247 ± 130 kPa | 625.9 ± 4 K |
| CC(C)(C)c1ccccc1 [(1,1-dimethylethyl)benzene] | 0.00048 ± 2e-05 m3/mol | 2900 ± 30 kPa | 646.9 ± 0.2 K | – | – |
| CC(C)C(O)C(C)(C)CO (configuration not stated) [2,2,4-trimethyl-1,3-pentanediol] | – | – | – | 3110 ± 140 kPa | 708.2 ± 3.2 K |
| Cc1ccsc1 [3-methylthiophene] | – | – | – | 4620 ± 140 kPa | 607.3 ± 3 K |
| COC(C)CO (configuration not stated) [2-methoxy-1-propanol] | – | – | – | 4310 ± 140 kPa | 596.6 ± 3 K |
| CC(=O)OCCOC(C)=O [ethylene diacetate] | – | – | – | 3080 ± 100 kPa | 654.9 ± 3 K |
| CCOCCO [2-ethoxyethan-1-ol] | – | – | – | 4200 ± 110 kPa | 598.9 ± 4 K |
| CC(C)CCCC(C)CCCC(C)CCCCC(C)CCCC(C)CCCC(C)C (configuration not stated) [2,6,10,15,19,23-hexamethyltetracosane] | – | – | – | 657 ± 67 kPa | 805 ± 20 K |
| Cc1cccs1 [2-methylthiophene] | – | – | – | 4620 ± 140 kPa | 602 ± 2 K |

| Structure (SMILES) | Critical molar volume (Visual) | Critical pressure (Visual) | Critical temperature [1] | Critical pressure (Capillary flow) | Critical temperature (Capillary flow) |
| --- | --- | --- | --- | --- | --- |
| C[C@@H]1CCCC[C@@H]1C [cis-1,2-dimethylcyclohexane] | 0.00041 ± 2e-05 m3/mol | 3350 ± 30 kPa | 607.29 ± 0.24 K | – | – |
| CNC(C)=O [N-methylacetamide] | – | – | – | 5090 ± 200 kPa | 707.4 ± 2 K |
| OCCN1CCNCC1 [N-(2-hydroxyethyl)piperazine] | – | – | – | 3980 ± 480 kPa | 760 ± 12 K |
| CC(=O)N(C)C [N,N-dimethylethanamide] | – | – | – | 4260 ± 120 kPa | 660.2 ± 2.6 K |
| CC(C)(C)C1CCCCC1 [1,1-dimethylethylcyclohexane] | 0.0005 ± 2e-05 m3/mol | 2770 ± 30 kPa | 646.9 ± 0.2 K | – | – |
| CC(C)C#N [2-methylpropanenitrile] | – | – | – | 3672 ± 150 kPa | 560.8 ± 2 K |
| Cn1cccc1 [N-methylpyrrole] | – | – | – | 4210 ± 140 kPa | 587.4 ± 3 K |
| Cc1ccc(C=O)cc1 [4-methylbenzaldehyde] | – | – | – | 3920 ± 90 kPa | 715.8 ± 4 K |
| COC(=O)c1ccc(C(=O)OC)cc1 [dimethyl 1,4-benzenedicarboxylate] | – | – | – | 2760 ± 400 kPa | 779 ± 20 K |
| CC(C)C=O [2-methylpropanal] | – | – | – | 4210 ± 140 kPa | 519 ± 3 K |
| CC(C)C1CCCCC1 [(1-methylethyl)cyclohexane] | 0.00048 ± 2e-05 m3/mol | 2940 ± 30 kPa | 635.3 ± 0.2 K | – | – |
| CCC(=O)OC(C)COC (configuration not stated) [1-methoxypropan-2-yl propionate] | – | – | – | 2600 ± 80 kPa | 611.7 ± 2.4 K |
| COCCOCCOCCOCCOC [2,5,8,11,14-pentaoxapentadecane] | – | – | – | 1980 ± 120 kPa | 726.6 ± 4 K |
| COC(C)OC [3-methyl-2,4-dioxapentane] | – | – | – | 4300 ± 260 kPa | 511.6 ± 5.6 K |
| C=C(C)C(=O)OC [methyl methacrylate] | – | – | – | 3750 ± 100 kPa | 557.9 ± 1.6 K |
| COCCOCCOCCOC [2,5,8,11-tetraoxadodecane] | – | – | – | 2310 ± 60 kPa | 681.2 ± 2.4 K |
